According to patent US11413278B2, “Compounds and methods for promoting stress resistance” (priority 2015, dated 2022):
“Also recorded” adds a separate entry of the source. Where two headings read alike, the source gives them in different places.

Legend:
Type in all cases: cell-based, human
FOXO3 = test: qPCR analysis of FOXO3-regulated genes; details: for Induction of at least two of five FOXO3-regulated genes (SOD2, GADD45A, CAT, DDB1, TXNIP): WI-38; for fold induction at 10 µM: Homo sapiens; for K = Sestrin induction: score
Procedure, shortened: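 WI-38 cells treated with compound at 10 μM for 24 h, followed by Cells-to-Ct RT-qPCR of FOXO3 target genes normalised to B2M, PPIA and GAPDH. FOXO3 or NRF2 dependence tested by prior 10 nM siRNA knockdown (36 h transfection, compound added ~24 h after replating).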

LC3A/B puncta = test: Autophagy induction analysis (LC3A/B puncta immuno-staining); details: for Exp. 2, induction of LC3A/B puncta (Up), overlapped signals normalized by total number of nuclei in the fields / Exp. 2, normalized change of nuclei numbers (Less cells): 20X objective, lysosomal LAMP co-staining
Method: Immuno-staining of LC3A/B was performed, following a standard protocol. Briefly, WI-38 cells were treated with small molecules for 24 hrs, and then processed and incubated with primary antibody (Cell Signaling, rabbit anti-LC3A/B, 1:100) overnight at 4° C. Next day, samples were processed and incubated with fluorophore-conjugated secondary antibody and further incubated with DAPI dye. Images were collected on the INCell Analyzer 2000 (Experiment 1: 10× objective; Experiment 2: 20× objective) and analyzed with the Developer Toolbox. For Experiment 2, lysosomal-associated membrane protein 2 (LAMP2) was also counter-stained to identify the LC3A/B puncta that colocalize with lysosome and the data were analyzed by the MetaXpress software (Molecular Devices, version 5.1). The intensity of total (Exp. 1) or LAMP2-colocalized LC3A/B puncta (Exp. 2) was normalized the total numbers nuclei in the fields.
These assays were performed, following the same procedures to analyze DNA-damage markers. WI-38 cells were incubated with small molecules for 24 hrs, and then processed and incubated with primary antibody (rabbit anti-LC3A/B, 1:100) overnight at 4 C. The next day, samples were processed and incubated with fluorophore-conjugated secondary antibody and further incubated with DAPI dye. Images were collected on an INCell Analyzer 2000 and analyzed with the Developer software. Total LC3A/B puncta intensity was normalized the total numbers of DAPI-positive nuclei.

mTOR = mTOR inhibition (RPS6 phosphorylation status), In-Cell Western
Procedure, shortened: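 WI-38 cells exposed to compounds at 5, 10 and 20 μM for 24 hrs. Fixed cells co-stained overnight at 4° C with anti-RPS and anti-pRPS6 (Ser-235/236) antibodies, then DyLight 680/800 secondaries. Phospho-RPS6 relative to total RPS6 read by near-infrared In-Cell Western imaging.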

[1] = 10 μM, 24 hrs, WI-38 cells, qPCR, normalized to B2M, n = 4
[2] = 24 h, Assay 10(m), at 10 uM, qPCR, read-out: Induction of FOXO3-regulated genes: DDB1 normalized fold-change
[3] = 10 μM, 24 hrs, WI-38 cells, qPCR, normalized to B2M, n = 4, read-out: CAT expression, normalized fold change (FOXO3-regulated gene)
[4] = WI-38 cells, 10 μM, 24 hrs, n=4, qPCR normalized by B2M, read-out: DDB1 Normalized fold change
[5] = WI-38 cells, 10 μM, 24 hrs, n=4, qPCR normalized by B2M, read-out: GADD45A Normalized fold change
[6] = WI-38 cells, 10 μM, 24 hrs, n=4, qPCR normalized by B2M, read-out: SESN1 Normalized fold change
[7] = fold change, qPCR, WI-38 cells, 10 μM, 24 hrs, read-out: Summary of effects on FOXO3-regulated genes: CAT
[8] = qPCR, WI-38 cells, 10 μM, n=4, 24 hrs, normalized by B2M, read-out: CAT Normalized fold change
[9] = qPCR, WI-38 cells, 10 μM, n=4, 24 hrs, normalized by B2M, read-out: SOD2 Normalized fold change
[10] = qPCR, WI-38 cells, 10 μM, n=4, 24 hrs, normalized by B2M, read-out: TXNIP Normalized fold change
[11] = fold change, qPCR, WI-38 cells, 10 μM, 24 hrs
[12] = WI-38 cells, 10 μM, 24 hrs, n=4, qPCR normalized by B2M
[13] = qPCR, WI-38 cells, 10 μM, n=4, 24 hrs, normalized by B2M
[14] = Exp. 1, 10 μM, 10X objective, WI-38 cells

O=C(/C(=C/c1ccc(Cl)cc1)c1nc2ccccc2[nH]1)c1ccccc1 [Gr-4D]
Induction of at least two of five FOXO3-regulated genes (SOD2, GADD45A, CAT, DDB1, TXNIP) (FOXO3; 10 μM, 24 hrs): could induce both FOXO3- and NRF2-regulated genes; also recorded: significant induction; also recorded: significant, induction
SOD2 expression, normalized fold change (FOXO3-regulated gene) (FOXO3; [1]): SOD2 1.20, fold
E = Potential FOXO3 Activation (FOXO3; 2-point score): 0
fold induction at 10 µM (FOXO3; 24 h, Assay 10(m), at 10 uM, qPCR, read-out: Induction of FOXO3-regulated genes: CAT normalized fold-change): 1.37
fold induction at 10 µM (FOXO3; [2]): 1.41
fold induction at 10 µM (FOXO3; 24 h, Assay 10(m), at 10 uM, qPCR, read-out: Induction of FOXO3-regulated genes: GADD45A normalized fold-change): 2.11
fold induction at 10 µM (FOXO3; 24 h, Assay 10(m), at 10 uM, qPCR, read-out: Induction of FOXO3-regulated genes: SESN1 normalized fold-change): 2.16
fold induction at 10 µM (FOXO3; 24 h, Assay 10(m), at 10 uM, qPCR, read-out: Induction of FOXO3-regulated genes: SOD2 normalized fold-change): 1.2
fold induction at 10 µM (FOXO3; WI-38, 24 h, read-out: SESN1 expression): > 1.5
fold induction at 10 µM (FOXO3; [3]): 1.37
fold induction at 10 µM (FOXO3; 10 μM, 24 hrs, WI-38 cells, qPCR, normalized to B2M, n = 4, read-out: DDB1 expression, normalized fold change (FOXO3-regulated gene)): 1.41
fold induction at 10 µM (FOXO3; 10 μM, 24 hrs, WI-38 cells, qPCR, normalized to B2M, n = 4, read-out: GADD45A expression, normalized fold change (FOXO3-regulated gene)): 2.11
fold induction at 10 µM (FOXO3; 10 μM, 24 hrs, WI-38 cells, qPCR, normalized to B2M, n = 4, read-out: SESN1 expression, normalized fold change (FOXO3-regulated gene)): 2.16
fold induction at 10 µM (FOXO3; [4]): 1.41
fold induction at 10 µM (FOXO3; [5]): 2.11
fold induction at 10 µM (FOXO3; [6]): 2.16
fold induction at 10 µM (FOXO3; [7]): 1.37
fold induction at 10 µM (FOXO3; fold change, qPCR, WI-38 cells, 10 μM, 24 hrs, read-out: Summary of effects on FOXO3-regulated genes: DDB1): 1.41
fold induction at 10 µM (FOXO3; fold change, qPCR, WI-38 cells, 10 μM, 24 hrs, read-out: Summary of effects on FOXO3-regulated genes: GADD45A): 2.11
fold induction at 10 µM (FOXO3; fold change, qPCR, WI-38 cells, 10 μM, 24 hrs, read-out: Summary of effects on FOXO3-regulated genes: SESN1): 2.16
fold induction at 10 µM (FOXO3; [8]): 1.37
fold induction at 10 µM (FOXO3; [9]): 1.2
fold induction at 10 µM (FOXO3; [10]): 1.09
Summary of effects on FOXO3-regulated genes: SOD2 (FOXO3; [11]): SOD2 1.20,
K = Sestrin induction (FOXO3): 1
E = Potential FOXO3 Activation (FOXO3; summary score): 0
H = Potential Autophagy Induction (LC3A/B puncta; score): 0
H = Potential Autophagy Induction (LC3A/B puncta; summary score): 0
G = mTOR down-regulation (mTOR; 2-point score): 0
G = mTOR down-regulation (mTOR; summary score): 0

COc1cc2c(no[n+]2[O-])n2nnnc12 [O11]
Induction of at least two of five FOXO3-regulated genes (SOD2, GADD45A, CAT, DDB1, TXNIP) (FOXO3; 10 μM, 24 hrs): significant induction; also recorded: significant, induction; also recorded: induce FOXO3-regulated genes
CAT expression, normalized fold change (FOXO3-regulated gene) (FOXO3; [1]): CAT 1.41, fold
DDB1 expression, normalized fold change (FOXO3-regulated gene) (FOXO3; [1]): DDB1 1.31, fold
SESN1 expression, normalized fold change (FOXO3-regulated gene) (FOXO3; [1]): SESN1 1.77, fold
TXNIP expression, normalized fold change (FOXO3-regulated gene) (FOXO3; [1]): TXNIP 1.35, fold
E = Potential FOXO3 Activation (FOXO3; 2-point score): 0
Induction of FOXO3-regulated genes: CAT normalized fold-change (FOXO3; Assay 10(m), at 10 uM, qPCR): CAT 1.41, fold-change
Induction of FOXO3-regulated genes: DDB1 normalized fold-change (FOXO3; Assay 10(m), at 10 uM, qPCR): DDB1 1.31, fold-change
Induction of FOXO3-regulated genes: SESN1 normalized fold-change (FOXO3; Assay 10(m), at 10 uM, qPCR): SESN1 1.77, fold-change
Induction of FOXO3-regulated genes: TXNIP normalized fold-change (FOXO3; Assay 10(m), at 10 uM, qPCR): TXNIP 1.35, fold-change
DDB1 Normalized fold change (FOXO3; [12]): 1.308 fold change
GADD45A Normalized fold change (FOXO3; [12]): 1.431 fold change
SESN1 Normalized fold change (FOXO3; [12]): 1.773 fold change
Summary of effects on FOXO3-regulated genes: CAT (FOXO3; [11]): CAT 1.41,
Summary of effects on FOXO3-regulated genes: DDB1 (FOXO3; [11]): DDB1 1.31,
Summary of effects on FOXO3-regulated genes: SESN1 (FOXO3; [11]): SESN1 1.77,
Summary of effects on FOXO3-regulated genes: TXNIP (FOXO3; [11]): TXNIP 1.35,
CAT Normalized fold change (FOXO3; [13]): 1.410
SOD2 Normalized fold change (FOXO3; [13]): 1.143
TXNIP Normalized fold change (FOXO3; [13]): 1.346
K = Sestrin induction (FOXO3): 1
E = Potential FOXO3 Activation (FOXO3; summary score): 0
Assay 15: Potential autophagy induction by LC3A/B puncta assays (LC3A/B puncta; 10 uM & 20 uM, YES/NO): YES
Exp. 1, induction of LC3A/B puncta (Up), total intensity normalized by total number of nuclei in the fields (LC3A/B puncta; [14]): p < 0.01; Up, 315%,
Exp. 1, normalized change of nuclei numbers (Less cells) (LC3A/B puncta; [14]): Less cells, 64%,
Exp. 2, induction of LC3A/B puncta (Up), overlapped signals normalized by total number of nuclei in the fields (LC3A/B puncta; Exp. 2, 10 μM, WI-38 cells): p < 0.001; Up, 193%,
Exp. 2, normalized change of nuclei numbers (Less cells) (LC3A/B puncta; Exp. 2, 10 μM, WI-38 cells): Less cells, 71%,
Exp. 2, induction of LC3A/B puncta (Up), overlapped signals normalized by total number of nuclei in the fields (LC3A/B puncta; Exp. 2, 20 μM, WI-38 cells): p < 0.001; Up, 159%,
Exp. 2, normalized change of nuclei numbers (Less cells) (LC3A/B puncta; Exp. 2, 20 μM, WI-38 cells): Less cells, 69%,
H = Potential Autophagy Induction (LC3A/B puncta; score): 1
H = Potential Autophagy Induction (LC3A/B puncta; summary score): 1
G = mTOR down-regulation (mTOR; 2-point score): 0
G = mTOR down-regulation (mTOR; summary score): 0

Nc1ccccc1S(=O)(=O)Nc1cccc2cccnc12 [Gr-3C]
E = Potential FOXO3 Activation (FOXO3; 2-point score): 0
fold induction at 10 µM (FOXO3; [2]): 0.79
fold induction at 10 µM (FOXO3; [3]): 0.87
fold induction at 10 µM (FOXO3; [4]): 0.985
fold induction at 10 µM (FOXO3; [5]): 1.16
fold induction at 10 µM (FOXO3; [6]): 1.09
fold induction at 10 µM (FOXO3; [7]): 0.87
fold induction at 10 µM (FOXO3; [8]): 0.868
fold induction at 10 µM (FOXO3; [9]): 1.2
fold induction at 10 µM (FOXO3; [10]): 1.03
K = Sestrin induction (FOXO3): 0
E = Potential FOXO3 Activation (FOXO3; summary score): 0
H = Potential Autophagy Induction (LC3A/B puncta; score): 0
H = Potential Autophagy Induction (LC3A/B puncta; summary score): 0
G = mTOR down-regulation (mTOR; 2-point score): 0
G = mTOR down-regulation (mTOR; summary score): 0
